Measured values reported in patent publication US6372792B1, “Method for treating anxiety, anxiety disorders and insomnia” (priority 1996, dated 2002).

Legend:
Type in all cases: in vivo, human
[1] = system: panic attacks and anxiety disorder; test: Case History 3: patient treated with gabapentin; details: for adverse effect: human, in vivo
Description: A person is a single who is working as a freelance writer. […] They were hospitalized because of severe depression and a suicide attempt by drug overdose. The patient has taken lithium since 1973. They have also had panic attacks since 1978.
In January 1994, the patient was depressed and valproic acid was initiated with lithium and clonazepam. […] Gabapentin 300 mg BID up to 300 mg TID was initiated in their treatment.

[2] = system: fast cycling manic depressive illness with anxiety associated with depression; test: Case History 2: patient treated with gabapentin; details: June to December 1992
Description: A person is a retired patient with a family history of bipolar affective illness. The patient has been treated for manic-depressive illness since they experienced their first depressive episode and was hospitalized several times for mania and depression.
[…]), the patient was hospitalized for an episode of acute mania. After that, they were treated with lithium, tryptophan, nicotinamide, clonazepam, Premarin®, Provera® and Overal®. The patient was re-hospitalized for a manic episode […] (1982). They have been treated with various psychotropic drugs, especially: lithium, tryptophan, and clonazepam. Lithium was discontinued in October 1983 until 1985. They were given tryptophan, lecithin and female hormones for control of a severe rapid-cycling bipolar disorder. Fluoxetine, as well as, antiepileptics (carbamazepine and valproic acid) were also added to their treatment.
Due to the patient's fast cycling manic depressive illness, their medication is regularly adjusted. Since 1991 magnesium was added to their regular medication. […] In April 1993, risperidone was initiated and in March 1994 lithium was discontinued. They are currently treated with risperidone, gabapentin 1800 mg QD (initiated in August 1994), clonazepam and ritanserin was recently added to their treatment in an attempt to improve their mood. They also take magnesium and lecithin.

[3] = system: obsessive compulsive disorder (OCD), anxiety, paranoid delusions; test: Case History 5: patient treated with gabapentin
Excerpt: The patient is a single person who is still studying at University. Their medical history is unremarkable. The patient was first seen by a psychiatrist and followed for obsessive compulsive disorder (OCD) in the United Emirates; the patient tended toward isolativeness. Also, they developed a tic disorder and complained of anxiety.
In February 1994, the patient developed intense paranoid ideation and became more withdrawn. Over the previous two years, the patient had suffered from paranoid delusions and auditory hallucinations. They stopped taking their neuroleptic medication in mid-December while they were a University student. They were admitted as an inpatient in March 1994. […] The patient was discharged with clozapine and lorazepam. In June, the patient was referred for Follow-Up where an anticonvulsant drug, valproic acid was added to potentiate clozapine, but discontinued in August 1994.
In February 1995, gabapentin was added to the patient's treatment. […] Currently, the patient takes clozpine 125 mg BID, […], gabapentin 500 mg HS and procyclidine 5 mg BID.

[4] = system: chronic severe generalized anxiety disorder with marked insomnia and depression; test: Case History 1: patient treated with gabapentin; details: initiated at a low dose
Description: The patient is a retired patient. […] In their medical history, there is a cervical laminectomy (1988). They report residual pain and weakness in the right arm and right leg and chronic neck pain. They have a history of three months of depression with no treatment (1989) and a history of chronic severe generalized anxiety disorder.
In December 1994, the patient had been taking a benzodiazepine, clonazepam 2.5 mg/day, for the last five years when their anxiety and depression became much worse. Anxiety was associated with marked insomnia and significant situational stressors (financial and marital). […] Patient is now functional for the first time in many years. Improvement continues as of this day. […] Improvement persists.

## CCCC(CCC)C(=O)O [valproic acid]
[1]
  adverse effect: they were losing their hair
[1]; initiated with lithium and clonazepam, two weeks later
  depression: the patient improved
[2]
  adverse effect: the patient was losing hair

## Cc1nc2n(c(=O)c1CCN1CCC(c3noc4cc(F)ccc34)CC1)CCCC2 [risperidone]
[3]; inpatient, March 1994
  psychotic symptoms (paranoid delusions, auditory hallucinations): did not improve

## CN[C@H]1CC[C@@H](c2ccc(Cl)c(Cl)c2)c2ccccc21 [sertraline]
[4]
  clinical response (anxiety and depression): made the patient worse

## OC(CCN1CCCC1)(c1ccccc1)C1CCCCC1 (stereo not drawn) [procyclidine]
[3]; procyclidine 5 mg BID
  akathisia: they improved with this medication

## CNCCC(Oc1ccc(C(F)(F)F)cc1)c1ccccc1 (stereo not drawn) [Fluoxetine]
[4]
  clinical response (anxiety and depression): made the patient worse

## NCC1(CC(=O)O)CCCCC1 [gabapentin, (1-aminomethyl)-1-cyclohexaneacetic acid]
[1]
  adverse effect: the patient complained of sedation
[3]; during the increase of gabapentin
  adverse effect: dizziness during the increase of gabapentin but this subsided
